Results: ChEMBL document CHEMBL4385613, “Discovery of Conformational Control Inhibitors Switching off the Activated c-KIT and Targeting a Broad Range of Clinically Relevant c-KIT Mutants” (J Med Chem, 2019)
Calls of active or inactive are those of the source. The rule behind the calls is not given here.

What was measured:
Mus musculus = assay: Decrease in c-KIT phosphorylation in po dosed NOD-SCID mouse xenografted with human GIST430 cells harboring c-KIT exon 11 primary in-frame V560-L576 deletion mutant and exon 13 heterozygous secondary missense V654A mutant measured after 8 hrs by immunoblotting method; type: functional, organism-based
GIST48 [1] = assay: Antiproliferative activity against human GIST48 cells harboring c-KIT exon 11 homozygous primary missense V560D mutant and exon 17 heterozygous secondary D820A mutant assessed as reduction in cell viability by MTS assay; type: functional
GIST882 = assay: Antiproliferative activity against human GIST882 cells harboring c-KIT exon 13 homozygous primary K642E mutant assessed as reduction in cell viability by MTS assay; type: functional
[2] = system: Mast/stem cell growth factor receptor Kit (Homo sapiens), P10721 [D816V]; conditions: at 10 nM
Chain of Mast/stem cell growth factor receptor Kit (Homo sapiens), P10721 [D816V] (P10721 whole entry D816V): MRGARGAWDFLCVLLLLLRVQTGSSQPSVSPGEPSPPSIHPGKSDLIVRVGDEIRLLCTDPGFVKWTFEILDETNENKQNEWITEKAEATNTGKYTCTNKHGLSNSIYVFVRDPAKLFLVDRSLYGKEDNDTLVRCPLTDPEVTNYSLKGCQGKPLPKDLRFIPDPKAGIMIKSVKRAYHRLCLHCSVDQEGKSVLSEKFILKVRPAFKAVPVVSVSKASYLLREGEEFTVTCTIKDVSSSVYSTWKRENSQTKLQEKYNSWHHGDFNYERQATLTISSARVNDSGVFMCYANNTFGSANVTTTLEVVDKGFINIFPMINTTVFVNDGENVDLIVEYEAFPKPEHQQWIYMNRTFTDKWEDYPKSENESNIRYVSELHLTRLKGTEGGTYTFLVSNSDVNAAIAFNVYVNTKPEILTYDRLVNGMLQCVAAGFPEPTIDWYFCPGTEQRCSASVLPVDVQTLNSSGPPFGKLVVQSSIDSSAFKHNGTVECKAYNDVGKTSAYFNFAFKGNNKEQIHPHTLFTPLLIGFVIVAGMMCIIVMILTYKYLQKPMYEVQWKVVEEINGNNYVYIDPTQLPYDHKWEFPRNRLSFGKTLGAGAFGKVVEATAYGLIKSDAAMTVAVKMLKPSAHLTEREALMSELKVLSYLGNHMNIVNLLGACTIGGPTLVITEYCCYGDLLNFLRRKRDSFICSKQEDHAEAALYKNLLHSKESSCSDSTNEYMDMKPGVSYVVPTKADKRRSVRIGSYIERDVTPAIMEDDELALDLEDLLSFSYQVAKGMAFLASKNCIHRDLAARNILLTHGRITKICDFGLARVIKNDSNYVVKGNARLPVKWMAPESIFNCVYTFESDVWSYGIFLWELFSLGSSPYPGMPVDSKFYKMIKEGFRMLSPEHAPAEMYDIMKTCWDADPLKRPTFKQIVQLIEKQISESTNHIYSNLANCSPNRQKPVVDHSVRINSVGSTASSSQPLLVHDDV
Description: Inhibition of human c-KIT A loop exon 17 D816V single mutant at 10 nM using poly (Glu,Tyr) 4:1 as substrate in presence of 33P-gamma-ATP by hotspot kinase assay relative to control

[3] = system: Mast/stem cell growth factor receptor Kit (Homo sapiens), P10721 [UNDEFINED MUTATION]; assay: Inhibition of c-KIT V560-L576 deletion/V654A double mutant phosphorylation in human GIST430 cells assessed as decrease in phosphorylation of MEK at 10 to 100 nM measured after 24 to 72 hrs by Western blot analysis; type: cell-based
Chain of Mast/stem cell growth factor receptor Kit (Homo sapiens), P10721 [UNDEFINED MUTATION] (P10721 whole entry, looked up, stated change not applied): as the sequence (P10721 whole entry D816V) above, with V816D counted along it

[4] = system: Mast/stem cell growth factor receptor Kit (Homo sapiens), P10721 [D820Y]; conditions: at 10 nM
Chain of Mast/stem cell growth factor receptor Kit (Homo sapiens), P10721 [D820Y] (P10721 whole entry D820Y): as the sequence (P10721 whole entry D816V) above, with V816D, D820Y counted along it
Description: Inhibition of human c-KIT A loop exon 17 D820Y single mutant at 10 nM using poly (Glu,Tyr) 4:1 as substrate in presence of 33P-gamma-ATP by hotspot kinase assay relative to control

A549 = assay: Antiproliferative activity against human A549 assessed as reduction in cell viability after 72 hrs by MTS assay; type: functional; conditions: A549, 72 h
[5] = molecular target: Mast/stem cell growth factor receptor Kit (Homo sapiens, UniProt P10721, D816V/V560G); assay: Inhibition of human c-KIT A loop exon 11/17 V560G/D816V double mutant using poly (Glu,Tyr) 4:1 as substrate in presence of 33P-gamma-ATP by hotspot kinase assay
Chain of Mast/stem cell growth factor receptor Kit (Homo sapiens, UniProt P10721, D816V/V560G) (P10721 26-976 V560G/D816V limits assumed): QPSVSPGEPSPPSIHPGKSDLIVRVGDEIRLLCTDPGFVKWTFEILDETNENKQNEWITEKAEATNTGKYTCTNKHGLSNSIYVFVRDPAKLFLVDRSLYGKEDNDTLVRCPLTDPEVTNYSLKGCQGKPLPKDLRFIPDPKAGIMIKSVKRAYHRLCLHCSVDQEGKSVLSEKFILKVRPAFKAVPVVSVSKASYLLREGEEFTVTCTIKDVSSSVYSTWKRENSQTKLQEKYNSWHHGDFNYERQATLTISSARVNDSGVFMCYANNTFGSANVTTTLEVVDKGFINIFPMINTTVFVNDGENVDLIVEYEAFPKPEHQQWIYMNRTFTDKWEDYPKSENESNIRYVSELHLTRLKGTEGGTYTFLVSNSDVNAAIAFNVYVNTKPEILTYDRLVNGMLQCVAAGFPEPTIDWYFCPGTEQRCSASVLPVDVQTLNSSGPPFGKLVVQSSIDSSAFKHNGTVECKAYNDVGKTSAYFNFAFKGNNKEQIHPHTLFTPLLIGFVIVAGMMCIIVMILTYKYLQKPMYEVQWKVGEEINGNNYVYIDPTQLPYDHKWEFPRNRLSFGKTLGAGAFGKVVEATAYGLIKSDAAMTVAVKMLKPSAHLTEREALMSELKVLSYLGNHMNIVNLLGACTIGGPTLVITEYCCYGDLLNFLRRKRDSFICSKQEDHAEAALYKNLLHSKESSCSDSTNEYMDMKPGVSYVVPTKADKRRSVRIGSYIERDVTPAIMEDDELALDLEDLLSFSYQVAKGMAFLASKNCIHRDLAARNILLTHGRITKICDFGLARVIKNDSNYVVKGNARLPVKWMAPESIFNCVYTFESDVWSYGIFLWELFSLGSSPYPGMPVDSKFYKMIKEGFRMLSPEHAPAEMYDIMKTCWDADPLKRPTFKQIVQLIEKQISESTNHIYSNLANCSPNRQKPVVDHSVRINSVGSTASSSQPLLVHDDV

[6] = system: Mast/stem cell growth factor receptor Kit (Homo sapiens), P10721 [A829P]; assay: Inhibition of human c-KIT A loop exon 18 A829P single mutant at 100 nM using poly (Glu,Tyr) 4:1 as substrate in presence of 33P-gamma-ATP by hotspot kinase assay relative to control
Chain of Mast/stem cell growth factor receptor Kit (Homo sapiens), P10721 [A829P] (P10721 whole entry A829P, the tested form may be a part): as the sequence (P10721 whole entry D816V) above, with V816D, A829P counted along it

GIST48 [7] = assay: Antiproliferative activity against human GIST48 cells harboring c-KIT exon 11 homozygous primary missense V560D mutant and exon 17 heterozygous secondary D820A mutant assessed as reduction in cell viability by methylene blue staining based assay; type: functional
[8] = system: Mast/stem cell growth factor receptor Kit (Homo sapiens), P10721 [D820E]; conditions: at 100 nM
Chain of Mast/stem cell growth factor receptor Kit (Homo sapiens), P10721 [D820E] (P10721 whole entry D820E, the tested form may be a part): as the sequence (P10721 whole entry D816V) above, with V816D, D820E counted along it
Description: Inhibition of human c-KIT A loop exon 17 D820E single mutant at 100 nM using poly (Glu,Tyr) 4:1 as substrate in presence of 33P-gamma-ATP by hotspot kinase assay relative to control

[9] = system: Mast/stem cell growth factor receptor Kit (Homo sapiens), P10721 [K642E]; assay: Inhibition of human c-KIT ATP binding domain exon 13 K642E single mutant at 10 nM using poly (Glu,Tyr) 4:1 as substrate in presence of 33P-gamma-ATP by hotspot kinase assay relative to control
Chain of Mast/stem cell growth factor receptor Kit (Homo sapiens), P10721 [K642E] (P10721 whole entry K642E, the tested form may be a part): as the sequence (P10721 whole entry D816V) above, with K642E, V816D counted along it

[10] = molecular target: Mast/stem cell growth factor receptor Kit (Homo sapiens, UniProt P10721, D820Y); assay: Inhibition of human c-KIT A loop exon 17 D820Y single mutant using poly (Glu,Tyr) 4:1 as substrate in presence of 33P-gamma-ATP by hotspot kinase assay
Chain of Mast/stem cell growth factor receptor Kit (Homo sapiens, UniProt P10721, D820Y) (P10721 26-976 D820Y limits assumed): as the sequence (P10721 26-976 V560G/D816V limits assumed) above, with G535V, V791D, D795Y counted along it

[11] = system: Mast/stem cell growth factor receptor Kit (Homo sapiens), P10721 [A829P]; assay: Inhibition of human c-KIT A loop exon 18 A829P single mutant at 10 nM using poly (Glu,Tyr) 4:1 as substrate in presence of 33P-gamma-ATP by hotspot kinase assay relative to control
[12] = molecular target: Mast/stem cell growth factor receptor Kit (Homo sapiens, UniProt P10721); assay: Inhibition of recombinant human N-terminal 6x-His-tagged c-KIT (547 to 935 residues)/(694 to 753 residues deletion) expressed in baculovirus infected Sf9 insect cells assessed as decrease in poly (Glu,Tyr) 4:1 phosphorylation measured after 150 mins in presence of ATP by ADP-glo based luminescence assay

inhibition [2]: 37%
inhibition [3]: Active
inhibition [4]: 99%
GI50 (A549): 14.6 µM
IC50 [5]: 9.27 nM
inhibition [6]: 99%
inhibition [8]: 100%
inhibition [9]: 82%
IC50 [10]: 0.02 nM
inhibition [11]: 90%
IC50 [12]: 82 nM
SMILES: CCc1cc(NC(=O)Nc2ccc(-c3cnc(Nc4cc(N5CCN(CC)CC5)ncn4)s3)cc2)no1
Activity (Mus musculus): Dose-dependent effect
GI50 (GIST48 [1]): 2 nM
GI50 (GIST882): 3 nM
GI50 (GIST48 [7]): 2 nM
